# Reference: patent US20130084272A1, “COMPOSITIONS, KITS AND METHODS FOR NUTRITIONAL SUPPLEMENTATION WITH TWELVE CARBON CHAIN FATTY ACIDS AND TWELVE CARBON CHAIN ACYLGLYCEROLS” (priority 2011, published 2013)
# Like-named read-outs stand apart in the source and are kept apart here.
# Columns and labels:
# [1] = in vivo
# [2] = Francois et al. 1998; cited from earlier work
# [3] = for Lauric acid content of milk: lactating women, baseline 3.9%
# bacteria = details: Batovska et al. 2009; cited from earlier work
Time remaining significantly elevated in milk ([1]; human) [days],Time of maximum increase in human milk [1] [h],Time to significant increase in human milk after consumption of the test formula [1] [h],"Milk content of lauric acid over time ([3]; ingestion of formula containing 40 g coconut oil, P<0.001)",Lauric acid content of milk ([3]; 10 h after consuming 40 g coconut oil composition),Lauric acid content of milk ([3]; 14 hr after consuming 40 g coconut oil composition),SMILES,Time to significant increase in human milk after consumption by the lactating mother [2] [h],Antibacterial activity among medium chain fatty acids and their monoacylglycerols (bacteria)
2,24,≤ 6,,,,CC/C=C\C/C=C\C/C=C\C/C=C\C/C=C\C/C=C\CCC(=O)O [docosahexaenoic acid],,
,14,≤ 6,,,,CC/C=C\C/C=C\C/C=C\C/C=C\C/C=C\CCCC(=O)O [eicosapentaenoic acid],,
,14,≤ 6,increases,9.2 % of fatty acids,9.6 % of fatty acids,CCCCCCCCCCCC(=O)O [lauric acid],≤ 6,
,,,,,,"CCCCCCCCCCCC(=O)OCC(O)CO (stereo not drawn) [monolaurin, glycerol monolaurate]",,most active
